Experimental data published in ChEMBL document CHEMBL4265943, “Design and synthesis of potent dual inhibitors of JAK2 and HDAC based on fusing the pharmacophores of XL019 and vorinostat” (Eur J Med Chem, 2018).

How the values were obtained:
[1] = target: Tyrosine-protein kinase JAK2 (Homo sapiens, UniProt O60674); test: Inhibition of human JAK2 using poly(Glu:Tyr)(4:1) as substrate preincubated for 20 mins followed by [gamma33P]ATP addition measured after 120 mins by ion exchange filter paper method
[2] = target: T1, Protein deacetylase HDAC6 (Homo sapiens, UniProt Q9UBN7); test: Inhibition of HDAC6 (unknown origin) using Arg-His-Lys-Lys(Ac) as substrate preincubated with enzyme followed by substrate addition for 2 hrs and measured for 1.5 hrs at 15 mins time interval by fluorescence assay
T1 sequence (Q9UBN7 whole entry): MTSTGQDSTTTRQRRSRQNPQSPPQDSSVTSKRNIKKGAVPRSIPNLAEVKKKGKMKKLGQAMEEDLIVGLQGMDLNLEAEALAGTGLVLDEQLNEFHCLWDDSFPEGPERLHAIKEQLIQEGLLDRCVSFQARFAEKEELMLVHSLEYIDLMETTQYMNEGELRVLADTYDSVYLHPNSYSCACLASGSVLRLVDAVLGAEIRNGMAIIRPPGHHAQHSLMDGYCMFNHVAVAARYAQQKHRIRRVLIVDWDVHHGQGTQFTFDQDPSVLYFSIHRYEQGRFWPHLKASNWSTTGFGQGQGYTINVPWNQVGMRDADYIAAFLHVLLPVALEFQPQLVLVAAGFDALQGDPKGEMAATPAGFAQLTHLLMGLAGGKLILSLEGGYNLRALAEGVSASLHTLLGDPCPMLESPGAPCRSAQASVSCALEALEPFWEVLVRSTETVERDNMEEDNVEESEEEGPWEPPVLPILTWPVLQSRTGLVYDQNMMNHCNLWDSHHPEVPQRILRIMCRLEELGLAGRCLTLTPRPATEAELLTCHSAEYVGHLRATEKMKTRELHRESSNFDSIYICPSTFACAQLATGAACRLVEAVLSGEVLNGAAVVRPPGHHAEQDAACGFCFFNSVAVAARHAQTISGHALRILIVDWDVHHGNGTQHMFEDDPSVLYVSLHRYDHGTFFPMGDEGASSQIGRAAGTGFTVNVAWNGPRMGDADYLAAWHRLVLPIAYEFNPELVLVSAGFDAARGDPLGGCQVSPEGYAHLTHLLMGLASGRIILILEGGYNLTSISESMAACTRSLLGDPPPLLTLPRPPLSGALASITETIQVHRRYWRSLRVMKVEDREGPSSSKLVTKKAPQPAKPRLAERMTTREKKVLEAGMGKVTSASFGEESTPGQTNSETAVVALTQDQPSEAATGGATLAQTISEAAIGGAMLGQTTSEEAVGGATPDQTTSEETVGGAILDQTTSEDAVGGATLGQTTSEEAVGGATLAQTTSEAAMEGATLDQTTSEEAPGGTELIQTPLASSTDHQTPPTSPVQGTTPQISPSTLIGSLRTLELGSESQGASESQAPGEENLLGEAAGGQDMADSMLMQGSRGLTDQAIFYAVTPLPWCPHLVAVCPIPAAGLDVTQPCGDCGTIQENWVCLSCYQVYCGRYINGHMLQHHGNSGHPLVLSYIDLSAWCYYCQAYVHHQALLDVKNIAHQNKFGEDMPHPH

[3] = target: T2, Tyrosine-protein kinase JAK3 (Homo sapiens, UniProt P52333); test: Inhibition of human JAK3 using poly(Glu:Tyr)(4:1) as substrate preincubated for 20 mins followed by [gamma33P]ATP addition measured after 120 mins by ion exchange filter paper method
T2 sequence (P52333 whole entry): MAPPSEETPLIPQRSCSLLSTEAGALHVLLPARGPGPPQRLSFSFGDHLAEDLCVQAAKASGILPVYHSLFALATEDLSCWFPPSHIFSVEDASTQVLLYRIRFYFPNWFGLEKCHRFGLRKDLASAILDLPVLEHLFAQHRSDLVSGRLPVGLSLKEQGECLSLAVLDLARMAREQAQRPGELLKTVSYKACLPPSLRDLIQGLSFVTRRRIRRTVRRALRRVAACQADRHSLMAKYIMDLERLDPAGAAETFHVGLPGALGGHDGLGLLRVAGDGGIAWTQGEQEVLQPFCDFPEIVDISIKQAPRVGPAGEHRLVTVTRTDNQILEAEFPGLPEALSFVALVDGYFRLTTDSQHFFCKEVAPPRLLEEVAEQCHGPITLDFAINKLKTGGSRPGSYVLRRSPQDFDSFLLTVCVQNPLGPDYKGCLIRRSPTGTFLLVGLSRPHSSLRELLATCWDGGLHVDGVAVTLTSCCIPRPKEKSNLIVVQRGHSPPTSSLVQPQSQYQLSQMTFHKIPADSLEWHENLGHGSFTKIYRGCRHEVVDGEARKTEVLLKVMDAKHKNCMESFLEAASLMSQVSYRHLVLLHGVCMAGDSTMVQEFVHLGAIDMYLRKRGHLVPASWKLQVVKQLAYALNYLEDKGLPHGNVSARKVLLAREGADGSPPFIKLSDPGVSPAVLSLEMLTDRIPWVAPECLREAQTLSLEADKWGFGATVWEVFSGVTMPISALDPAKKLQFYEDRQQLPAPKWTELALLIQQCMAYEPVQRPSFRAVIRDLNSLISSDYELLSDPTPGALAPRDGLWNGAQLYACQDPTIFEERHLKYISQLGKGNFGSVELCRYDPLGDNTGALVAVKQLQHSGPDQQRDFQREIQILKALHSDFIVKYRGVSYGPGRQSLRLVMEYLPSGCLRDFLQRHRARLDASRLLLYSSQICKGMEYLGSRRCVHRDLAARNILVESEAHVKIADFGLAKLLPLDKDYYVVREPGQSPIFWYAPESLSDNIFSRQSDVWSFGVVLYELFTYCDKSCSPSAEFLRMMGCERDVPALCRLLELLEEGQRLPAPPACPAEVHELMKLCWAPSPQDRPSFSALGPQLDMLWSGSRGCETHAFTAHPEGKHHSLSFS

MDA-MB-231 = test: Antiproliferative activity against human MDA-MB-231 cells after 72 hrs by MTT assay; assay type: functional, cell-based; conditions: MDA-MB-231, 72 h
[4] = Antiproliferative activity against mouse TAMH cells after 72 hrs by MTT assay; assay type: cell-based
[5] = Selectivity index, ratio of CC50 for mouse TAMH cells to IC50 for human MCF7 cells; assay type: toxicity; conditions: TAMH cells (CC50) and MCF7 cells (IC50)
[6] = Selectivity index, ratio of CC50 for human AC10 cells to IC50 for human PC3 cells; assay type: toxicity; conditions: AC10 cells (CC50) and PC3 cells (IC50)
PC-3 = test: Induction of apoptosis in human PC3 cells assessed as early apoptotic cells at 0.71 uM after 72 hrs by Annexin V-FITC/propidium iodide staining based flow cytometry (reference value: […]%); assay type: functional
HCT-116 = test: Induction of apoptosis in human HCT116 cells assessed as live cells at 1.14 uM after 72 hrs by Annexin V-FITC/propidium iodide staining based flow cytometry (reference value: 95.7%); assay type: functional
MCF7 = test: Induction of apoptosis in human MCF7 cells assessed as late apoptotic cells at 0.86 uM after 72 hrs by Annexin V-FITC/propidium iodide staining based flow cytometry (reference value: 1.59%); assay type: functional

Chain of Tyrosine-protein kinase JAK2 (O60674 whole entry): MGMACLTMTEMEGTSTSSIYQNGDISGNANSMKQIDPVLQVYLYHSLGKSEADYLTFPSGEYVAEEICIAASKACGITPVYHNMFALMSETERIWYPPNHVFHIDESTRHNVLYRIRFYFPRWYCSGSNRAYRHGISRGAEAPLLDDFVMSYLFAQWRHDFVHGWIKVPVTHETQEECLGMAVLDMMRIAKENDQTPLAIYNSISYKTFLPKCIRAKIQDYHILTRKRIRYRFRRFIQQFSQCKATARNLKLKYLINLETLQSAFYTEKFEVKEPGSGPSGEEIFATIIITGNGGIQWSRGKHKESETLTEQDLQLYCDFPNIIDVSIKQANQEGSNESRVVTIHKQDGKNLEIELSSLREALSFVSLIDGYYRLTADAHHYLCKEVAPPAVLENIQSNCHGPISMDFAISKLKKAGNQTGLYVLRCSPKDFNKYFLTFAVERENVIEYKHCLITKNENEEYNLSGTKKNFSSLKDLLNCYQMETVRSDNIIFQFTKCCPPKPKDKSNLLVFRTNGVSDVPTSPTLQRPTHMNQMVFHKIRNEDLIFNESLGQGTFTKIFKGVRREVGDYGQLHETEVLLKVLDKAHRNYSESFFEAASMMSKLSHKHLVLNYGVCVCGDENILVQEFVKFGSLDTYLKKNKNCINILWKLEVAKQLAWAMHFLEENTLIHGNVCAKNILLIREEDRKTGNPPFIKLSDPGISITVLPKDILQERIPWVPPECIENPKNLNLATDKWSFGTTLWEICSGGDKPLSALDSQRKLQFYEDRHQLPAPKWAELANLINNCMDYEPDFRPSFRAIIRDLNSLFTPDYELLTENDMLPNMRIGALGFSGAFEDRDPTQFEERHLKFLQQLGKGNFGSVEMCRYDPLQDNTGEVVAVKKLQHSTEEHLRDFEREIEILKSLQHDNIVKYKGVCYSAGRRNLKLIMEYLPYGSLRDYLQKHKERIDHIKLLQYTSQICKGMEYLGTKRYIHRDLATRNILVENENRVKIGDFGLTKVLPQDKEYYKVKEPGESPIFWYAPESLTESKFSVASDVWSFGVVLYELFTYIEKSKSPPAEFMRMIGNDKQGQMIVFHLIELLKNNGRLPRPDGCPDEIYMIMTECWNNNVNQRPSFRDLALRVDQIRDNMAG

O=C(CCCCCCC(=O)Nc1ccc(-c2ccnc(Nc3ccc(N4CCOCC4)cc3)n2)cc1)NO
IC50 [1]: 0.0031 µM | IC50 [2]: 0.0012 µM | IC50 [3]: 0.0801 µM | IC50 (MDA-MB-231): 0.99 µM | CC50 at 72 h [4]: 6.39 µM | selectivity ratio [5]: 9.13 | selectivity ratio [6]: 6.22 | Activity (PC-3): 45.69% | Activity (HCT-116): 52.4% | Activity (MCF7): 24.84%
